The subject of data set [1] is P388 murine leukemia cells. As to the kind of experiment: In vitro cytotoxicity, one-hour exposure, clonogenic survival of P388 cells. The class given is cell-based. The settings on record: Mus musculus, read-out: in vitro cytotoxicity IC50, 1 hr exp. A digest of the protocol: (§1)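 For continuous exposure, log-phase P388 murine leukemia cells were co-incubated with a range of compound concentrations for 48 hours and total cells counted on a Coulter counter. For one-hour exposure, survival was scored as soft-agar colonies after 7-10 days at 37° C and 5% CO2. Survival is expressed relative to untreated control.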

Data set [2] has as its system P388 murine leukemia cells. The experiment in a line: In vitro cytotoxicity, continuous (48-hour) exposure of P388 cells. The class given is cell-based. The settings on record: Mus musculus, read-out: in vitro cytotoxicity IC50, cont. exp. A digest of the protocol: as §1
The nature of data set [3]: In vivo antitumor assay, B16(ip). On the set-up: species or system mice. The settings on record: mouse, in vivo, drug ip. The text has this: (§2) Mice: Inbred: C3H/He and NCR-nu; and Hybrids: B6D2F1 (C57BL/6 females×DBA/2 males, CD2F1 (Balb/c females×DBS/2 males) and B6C3fl (C57BL/6×C3H) were bred at Wayne State University from strains obtained from the Frederick Cancer Research Facility, Frederick, Maryland or purchased from commercial suppliers.
(§3) Tumors: Murine Tumor: P388 and an adriamycin-resistant (ADR) subline P388/ADR leukemia and the following transplantable solid tumors of mice were used for in vivo testing: B16 melanoma (B16), pancreatic ductal adenocarcinoma No. 03 (Pane 03), colon adenocarcinoma No. 38 (colo 38), lung carcinoma No. 12 (LC 12), mammary ductal adenocarcinoma No. 16/C (Mam16C) and an adriamycin-resistant subline Mam16C/ADR. Human tumor: A single human tumor, mammary carcinoma MX-1 was used for in vivo testing. All tumors are in the Developmental Therapeutics Program frozen tumor respository, maintained by the Biological Testing Branch, Frederick Maryland. Each has a detailed description, code identification number, and list of references at the National Tumor Repository. Murine tumors were maintained in the mouse strain of origin and were transplanted in the appropriate F1 hydrid (or the strain of origin) for therapy trials. Human mammary carcinoma MX-1 (MX1) was maintained as a subcutaneous implant in either athymic Swiss (Cr: NIH(S)-nu) or athymic random bred (NCR-nu) mice and transplanted in NCR-nu for therapy trials.
(§4) For P388 and P388/ADR leukemia studies the tumor cells were implanted either interperitoneally (IP) or intravenously (IV) on day zero and treatment was started on day one. For B16 melanoma (B16) studies, the tumor cells were implanted IP on day zero and treatment was started on day one. Titered controls were also included to facilitate the calculation of tumor cell kill. For mammary carcinoma MX-1 studies, tumors were implanted with 1) subcutaneously (sc) (14-mg fragment of sc donor tumor) in the axillary region or 2) under the subrenal capsule (SRC) (10×10×10 ocular micrometer unit fragment of sc donor tumor).
(§5) Quantitative end points used to assess antitumor activity included % Increased Life Span (% ILS), Tumor Cell Kill (Log10 kill), and Tumor Growth Inhibition (T/C). Long Term Survivors (45 or 60 day) were excluded from calculations of %ILS and Tumor Cell Kill.
(§6) Endpoints were calculated as follows: [formula] where Dt is the median day of death for treated and Dc is the median day of death for control groups. A % ILS ≥20 or ≥25 for P388 and B16 intraperitoneal models, respectively, is indicative of a significant degree of antitumor activity. A % ILS ≥75 or ≥50 for P388 and B16 intraperitoneal models, , respectively, is indicative of a high degree of antitumor activity and is the level used by National Cancer Institute to justify further development if other requirements are met (termed DN-2 level activity). Minimum quantitative activity limits for additional P388 models (e.g. P388/ADR and P388, IV) have not been defined.

For a further data set, the system named is B16 melanoma (B16). As to the kind of experiment: In vivo antitumor assay, B16(ip). To be noted: drug ip; for ILS %: qd 1,5,9, exp SD-17, at dose of MTD; for Log Kill: qd 1,5,9, exp SD-17, log10. On the set-up: species or system mice.
Source text: as §2, §3, §4, §5, §6

The nature of data set [4]: In vivo antitumor assay, MXI(sc). On the set-up: species or system human. To be noted: mouse, in vivo, drug ip, qd 1,5,9, exp SD-9.
Source text: as §2, §3, §4, §5
(§7) Tumors were measured with a caliper once or twice weekly (as needed) until either tumors exceeded 1600 mg or cure was assured. Tumor weights were estimated from two-dimensional measurements: Tumor Weight (mg)=(a×b^2) / 2, where a and b are the tumor length and width (ram) respectively. Measurements were carried out simultaneously in both treatment and control groups. When the control group tumors reached approximately 750-1500 mg in size (median of group), the median tumor weight of each group was determined (including zeros). The T/C value in percent is an indication of antitumor effectiveness. The % T/C was calculated from the following formula for solid murine tumor models: [formula] where T and C are median tumor weights of the treatment and control groups, respectively. […] A T/C value <10% is indicative of a high degree of antitumor activity and is the level used by National Cancer Institute to justify further development if other requirements are met (termed DN-2 level activity). By convention the T/C value for the mammary carcinoma MX-1 models is calculated by the parameter of change in tumor weight . The % T/C was calculated from the following formula for MX-1 models [formula] where ΔT and ΔC are the change in mean tumor weight of the test and control groups, respectively, and T (initial) is the initial mean tumor weight of the test group. […] A reproducible % T/C ≤10 is considered significant activity.

Data set [5] has as its system mammary carcinoma MX-1. As to the kind of experiment: In vivo antitumor assay, MXI(sc). On the set-up: species or system human. To be noted: drug ip, qd 1,5,9, exp SD-9, change in tumor weight.
Source text: as §2, §3, §4, §5, §7

Data set [6] is described as follows: In vivo antitumor assay, MXI(src). The arrangement: species or system mice. The settings on record: mouse, in vivo, drug ip.
Source text: as §2, §3, §4, §5, §7

Data set [7] has as its system mammary carcinoma MX-1. The experiment in a line: In vivo antitumor assay, MXI(src). The arrangement: species or system mice. To be noted: drug ip, qd 1,5,9, exp SD-18, change in tumor weight.
Source text: as §2, §3, §4, §5, §7

A short description of data set [8]: In vivo antitumor assay, P388(ip). The arrangement: species or system mice. The settings on record: mouse, in vivo, qd 1,5,9.
Source text: as §2, §3, §4, §5, §6

A further data set concerns P388 leukemia. The experiment in a line: In vivo antitumor assay, P388(ip). On the set-up: species or system mice. The settings on record: qd 1,5,9.
Source text: as §2, §3, §4, §5, §6

Where [9] appears, read: P388, continuous exposure (48-hour).
Setting [10] is: qd 1,5,9, exp SD-17, MTD not achieved, maximum dose tested.

These results are taken from US5334595A, “Pyrazoloquinolones as anticancer agents” (priority 1992, dated 1994).

The term IC50 denotes the concentration at which inhibition is half-maximal.

Take `Cc1cc(-c2c(F)cc3c4nn(CCN(C)C)c(=O)c-4cn(C4CC4)c3c2F)cc(C)n1.O=C(O)/C=C/C(=O)O` [Example 1, 5-Cyclopropyl-6,8-difluoro-2,5-dihydro-2-[2-(dimethylamino)-ethyl]-7-(2,6-dimethyl-4-pyridinyl)-3H-pyrazolo[4,3-c]quinolin-3-one (E)-2-butendioate (1:1)]: the concentration for half-maximal inhibition (IC50) in data set [1] (P388, 1 h) worked out at 260 nM; in data set [2] (P388, 48 h), 40 nM. Moreover, the MTD in data set [3] (qd 1,5,9, exp SD-17) stood at 78 mg/kg; in data set [4] it was 78 mg/kg; in data set [6] (qd 1,5,9, exp SD-18), 52 mg/kg; in data set [8] (drug ip), 78 mg/kg; in data set [8] (drug iv), 117 mg/kg. For the same compound, the ILS % was determined as 85% in the data set with B16 melanoma (B16), 155% with P388 leukemia (drug ip) and 170% in the data set on P388 leukemia (drug iv). Besides, the “Log Kill” value was found to be 1.9 in the data set with B16 melanoma (B16), 11 in the data set on P388 leukemia (drug ip) and 12 in the data set with P388 leukemia (drug iv). Moreover, the T/C % with mammary carcinoma MX-1 [5] is on record as 37%; in the data set with mammary carcinoma MX-1 [7], 6%.

For the compound `Cc1cc(-c2c(F)cc3c4nn(CCCN(C)C)c(=O)c-4cn(C4CC4)c3c2F)cc(C)n1` [Example 14], the IC50 in data set [1] (P388, 1 hr exposure) was determined as 160 nM; in data set [2] (setting [9]), 380 nM. Also, the MTD in [3] (qd 1,5,9, exp SD-17) turned out to be 28 mg/kg; in data set [4] it was 42 mg/kg; in data set [8] (drug ip), 42 mg/kg; in [8] (drug iv), 64 mg/kg. In addition, the figures for the ILS % in the data set on B16 melanoma (B16), in the data set with P388 leukemia (drug ip) and with P388 leukemia (drug iv) were 58%, 85% and 70%, respectively. Besides, the “Log Kill” value in the data set on B16 melanoma (B16) worked out at 1.3; with P388 leukemia (drug ip), 6.1; with P388 leukemia (drug iv) it was 5.0. This compound yielded a T/C % in the data set on mammary carcinoma MX-1 [5] of 53%.

Take `Cc1cc(-c2c(F)cc3c4nn(CCNCCO)c(=O)c-4cn(C4CC4)c3c2F)cc(C)n1` [Example 17]: the IC50 in [1] (P388, 1 hr exposure) was determined as 1300 nM; in [2] (setting [9]), 1200 nM. Moreover, the MTD in data set [3] (qd 1,5,9, exp SD-17) was found to be 180 mg/kg; in data set [4], 270 mg/kg; in data set [8] (drug ip) it was 180 mg/kg; in data set [8] (drug iv), 120 mg/kg. The ILS % in the data set with B16 melanoma (B16) turned out to be 61%; in the data set with P388 leukemia (drug ip), 50%; in the data set with P388 leukemia (drug iv), 5%. Further, the “Log Kill” value turned out to be 1.4 in the data set on B16 melanoma (B16), 3.5 in the data set on P388 leukemia (drug ip) and 0.35 with P388 leukemia (drug iv). This compound also yielded a T/C % with mammary carcinoma MX-1 [5] of 67%.

On to `Cc1cc(-c2c(F)cc3c4nn([C@H]5CC[C@@H](N(C)C)CC5)c(=O)c-4cn(C4CC4)c3c2F)cc(C)n1` [Example 51a], for which the IC50 in [1] (P388, 1 hr exposure) came out at 67 nM. Also, the MTD is greater than 15 mg/kg in data set [3] (setting [10]); greater than 23 mg/kg in data set [6] (qd 1,5,9, exp SD-18, MTD not achieved, maximum dose tested); 9.9 mg/kg in data set [8] (drug ip); 39.9 mg/kg in data set [8] (drug iv). Also, the ILS % is reported as 29% in the data set on B16 melanoma (B16), 65% in the data set on P388 leukemia (drug ip) and 70% in the data set with P388 leukemia (drug iv). Besides, the “Log Kill” value in the data set on B16 melanoma (B16) is reported as 0.67; in the data set with P388 leukemia (drug ip), 4.7; with P388 leukemia (drug iv), 5.1. The compound further returned a T/C % in the data set with mammary carcinoma MX-1 [7] of 5%.

For `Cc1cc(-c2c(F)cc3c4nn([C@H]5CC[C@H](N(C)C)CC5)c(=O)c-4cn(C4CC4)c3c2F)cc(C)n1` [Example 51b], the half-inhibitory concentration (IC50) in data set [1] (P388, 1 hr exposure) is 260 nM. For the same compound, the MTD was greater than 99 mg/kg in data set [3] (setting [10]); 99 mg/kg in data set [6] (qd 1,5,9, exp SD-18); 66 mg/kg in data set [8] (drug ip); 120 mg/kg in data set [8] (drug iv). The ILS % with B16 melanoma (B16) is reported as 47%; in the data set with P388 leukemia (drug ip), 85%; in the data set on P388 leukemia (drug iv) it was 85%. The “Log Kill” value is reported as 1.0 with B16 melanoma (B16), 6.2 in the data set with P388 leukemia (drug ip) and 6.2 in the data set with P388 leukemia (drug iv). Moreover, the T/C % in the data set with mammary carcinoma MX-1 [7] worked out at 2%.

With `Cc1cc(-c2c(F)cc3c4nn([C@H]5CC[C@@H](N)CC5)c(=O)c-4cn(C4CC4)c3c2F)cc(C)n1` [Example 56a, 2-(Cis-4-Aminocyclohexyl)-5-cyclopropyl-6,8-difluoro-2,5-dihydro-7-(2,6-dimethyl-4-pyridinyl)-3H-pyrazolo-[4,3-c]quinolin-3-one], the half-inhibitory concentration (IC50) in [1] (P388, 1 hr exposure) was 440 nM.
